Assay results published in patent publication US10729691B2, “Treatment of infectious diseases with glucose uptake inhibitors” (Kadmon Corporation LLC, priority 2015, dated 2020).

Test system: P. falciparum (3D7 strain)-infected erythrocyte cultures
Experiment: LC-MS metabolomics analysis of ATP levels in infected erythrocyte cultures
Format: cell-based, Plasmodium falciparum
Conditions: 2.5 uM compound
Method: The ATP levels of the infected cells are substantially depleted within 15 minutes of compound exposure and remain so for the duration of the experiment.
Cellular metabolite levels were determined in cultures that had been enriched for late stage (trophozoite/schizont)-infected erythrocytes by centrifuging a bulk culture suspension over a two-step Percoll gradient (65%/35% Percoll) at 1,500 RCF for 15 minutes and collecting the parasitized erythrocytes at the interface. 10 uL of packed cells were pelleted from the resulting cultures by centrifugation (500 RCF, 5 minutes), the culture medium removed by aspiration, and the cells extracted with 1.2 mL of 80% methanol/20% on dry ice. The first extraction was collected as the supernatant after centrifugation (1,000 RCF, 5 minutes) and the pellet extracted again with 0.3 mL of 80% methanol/20%. The two extracts were pooled, dried under nitrogen and resuspended in 200 uL of water prior to LC-MS analysis. […]
(§1) The sample was analyzed on an Exactive mass spectrometer (Thermo Scientific) to determine the chromatographic peak areas the analytes and internal standards. Glucose and lactate were quantified by taking the ratio of the unlabeled peak area to the area of the isotope-labeled standard.

With `CC(C)NC(=O)COc1cccc(-c2nc(Nc3ccc4[nH]ncc4c3)c3sccc3n2)c1` [Example 3] the “time until ATP levels of the infected cells are substantially depleted” value was no more than 15 min.

Test system: P. falciparum-infected RBCs
Experiment: Glycolysis IC50 / lactate excretion assay in P. falciparum-infected RBCs
Format: cell-based
Conditions: Plasmodium falciparum
Method: The cultures were harvested and DNA quantitated using the standard Sybr Green I fluorescence assay. […] The culture medium was harvested and extracellular lactic acid was quantified by LC-MS.
P. falciparum (HB-3 strain) cultures were maintained in standard culture conditions. […] Parasites were grown in O+ donor blood, 2% hematocrit.
Parasite cultures were seeded in 96-well plates (1% hematocrit, 1-2% starting parasitemia, 100 μL total volume) with varying concentrations of the test compounds in a final concentration of 0.1% DMSO. Plates were cultured for 48 hours before harvesting the culture medium for LC-MS analysis. At harvest, thin smears were taken and examined microscopically to observe any alterations in parasite morphology.
Culture medium samples were diluted in 9 volumes of methanol containing U-^13C-glucose and 1-^13C-lactate (final concentration 0.25 mM each). The samples were clarified by centrifugation at 13,000 RCF for 10 minutes. […] Mobile phase A was acetonitrile, and mobile phase B was 20 mM ammonium acetate (pH 9.4).
as §1

`CC(C)NC(=O)COc1cccc(-c2nc(Nc3ccc4[nH]ncc4c3)c3sccc3n2)c1` [Example 3] and `CC(C)NC(=O)COc1cccc(-c2nc(Nc3ccc(-c4cn[nH]c4)cc3)c3cnccc3n2)c1` [Example 53, 2-(3-(4-((4-(1H-pyrazol-4-yl)phenyl)amino)pyrido[4,3-d]pyrimidin-2-yl)phenoxy)-N-isopropylacetamide] fall in the same range of IC50: 101 to 250 nM for the first, 101 to 250 nM for the second.

`CCC(CC)NC(=O)COc1cccc(-c2nc3c(c(Nc4ccc(-c5cn[nH]c5)cc4)n2)CN(C(C)=O)CC3)c1` [Example 45, 2-(3-(4-((4-(1H-pyrazol-4-yl)phenyl)amino)-6-acetyl-5,6,7,8-tetrahydropyrido[4,3-d]pyrimidin-2-yl)phenoxy)-N-(pentan-3-yl)acetamide] and `CCC(CC)NC(=O)COc1cccc(-c2nc3c(c(Nc4ccc(-c5cn[nH]c5)cc4)n2)CN(C(C)=O)C3)c1` [Example 55, 2-(3-(4-((4-(1H-pyrazol-4-yl)phenyl)amino)-6-acetyl-6,7-dihydro-5H-pyrrolo[3,4-d]pyrimidin-2-yl)phenoxy)-N-(pentan-3-yl)acetamide] fall in the same range of IC50: 10 to 100 nM for the first, 10 to 100 nM for the second.

`CC(C)CNC(=O)COc1cccc(-c2nc3c(c(Nc4ccc(-c5cn[nH]c5)cc4)n2)COCC3)c1` [Example 46, 2-(3-(4-((4-(1H-pyrazol-4-yl)phenyl)amino)-7,8-dihydro-5H-pyrano[4,3-d]pyrimidin-2-yl)phenoxy)-N-isobutylacetamide] and `CC(C)(C)CNC(=O)COc1cccc(-c2nc3c(c(Nc4ccc(-c5cn[nH]c5)cc4)n2)COCC3)c1` [Example 47, 2-(3-(4-((4-(1H-pyrazol-4-yl)phenyl)amino)-7,8-dihydro-5H-pyrano[4,3-d]pyrimidin-2-yl)phenoxy)-N-neopentylacetamide] fall in the same range of IC50: 10 to 100 nM for the first, 10 to 100 nM for the second.

Compared with `CC(=O)N1CCc2nc(-c3cccc(OCC(=O)NC(C)(C)C)c3)nc(Nc3ccc(-c4cn[nH]c4)cc3)c2C1` [Example 48, 2-(3-(4-((4-(1H-pyrazol-4-yl)phenyl)amino)-6-acetyl-5,6,7,8-tetrahydropyrido[4,3-d]pyrimidin-2-yl)phenoxy)-N-(tert-butyl)acetamide], `CC(=O)N1Cc2nc(-c3cccc(OCC(=O)NC(C)(C)C)c3)nc(Nc3ccc(-c4cn[nH]c4)cc3)c2C1` [Example 56, 2-(3-(4-((4-(1H-pyrazol-4-yl)phenyl)amino)-6-acetyl-6,7-dihydro-5H-pyrrolo[3,4-d]pyrimidin-2-yl)phenoxy)-N-(tert-butyl)acetamide] is higher in IC50: 10 to 100 nM for the first, 101 to 250 nM for the second.

`O=C(COc1cccc(-c2nc3c(c(Nc4ccc(-c5cn[nH]c5)cc4)n2)COCC3)c1)NC1CCCC1` [Example 51, 2-(3-(4-((4-(1H-pyrazol-4-yl)phenyl)amino)-7,8-dihydro-5H-pyrano[4,3-d]pyrimidin-2-yl)phenoxy)-N-cyclopentylacetamide] and `O=C(COc1cccc(-c2nc3c(c(Nc4ccc(-c5cn[nH]c5)cc4)n2)COCC3)c1)NC1CCC1` [Example 52, 2-(3-(4-((4-(1H-pyrazol-4-yl)phenyl)amino)-7,8-dihydro-5H-pyrano[4,3-d]pyrimidin-2-yl)phenoxy)-N-cyclobutylacetamide] fall in the same range of IC50: 101 to 250 nM for the first, 101 to 250 nM for the second.

First: CC(=O)N1Cc2nc(-c3cccc(OCC(=O)NC(C)C)c3)nc(Nc3ccc(-c4cn[nH]c4)cc3)c2C1 [Example 54, 2-(3-(4-((4-(1H-pyrazol-4-yl)phenyl)amino)-6-acetyl-6,7-dihydro-5H-pyrrolo[3,4-d]pyrimidin-2-yl)phenoxy)-N-isopropylacetamide]
Second: CC(=O)N1CCc2nc(-c3cccc(OCC(=O)NCC(C)C)c3)nc(Nc3ccc(-c4cn[nH]c4)cc3)c2C1 [Example 59, 2-(3-(4-((4-(1H-pyrazol-4-yl)phenyl)amino)-6-acetyl-5,6,7,8-tetrahydropyrido[4,3-d]pyrimidin-2-yl)phenoxy)-N-isobutylacetamide]
The IC50 of the first is higher: 501 to 1000 nM for the first, 101 to 250 nM for the second. The second is the more potent here.

`CC(=O)N1CCc2nc(-c3cccc(OCC(=O)NC4CCCC4)c3)nc(Nc3ccc(-c4cn[nH]c4)cc3)c2C1` [Example 57, 2-(3-(4-((4-(1H-pyrazol-4-yl)phenyl)amino)-6-acetyl-5,6,7,8-tetrahydropyrido[4,3-d]pyrimidin-2-yl)phenoxy)-N-cyclopentylacetamide] and `CC(C)(C)NC(=O)COc1cccc(-c2nc(Nc3ccc(-c4cn[nH]c4)cc3)c3cnccc3n2)c1` [Example 58, 2-(3-(4-((4-(1H-pyrazol-4-yl)phenyl)amino)pyrido[4,3-d]pyrimidin-2-yl)phenoxy)-N-(tert-butyl)acetamide] fall in the same range of IC50: 101 to 250 nM for the first, 101 to 250 nM for the second.
